Data reported in PubChem BioAssay AID2060615 (Molecular Pharmacology Branch, DTP, NCI, 2025).
Blank lines part the entries; values can stand above or below the molecule they belong to.

System: 496974-208-R-J2-PDC complex spheroids, growth % test/control
Experiment: Anticancer human tumor 496974-208-R-J2-PDC patient-derived pancreatic carcinoma cell line growth inhibition [CLK]
Conditions: for viability, T/C: stronger effect = lower value
Procedure, shortened: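 Multi-cell-type spheroids combined patient-derived tumor cells with HUVEC endothelial cells and human mesenchymal stem cells. Paired agents were dosed in half-log steps down from about clinical Cmax, or from 10 microM where Cmax was unknown.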

[1] = curve of first compound, second compound 0.0316 µM
[2] = curve of first compound, second compound 0.1 µM
[3] = curve of first compound, second compound 0.316 µM
[4] = curve of first compound, second compound 1 µM
[5] = curve of first compound, second compound 3.16 µM
[6] = curve of first compound, second compound 10 µM
[7] = second compound 0.0316 µM, first compound 0.0316 µM
[8] = second compound 0.0316 µM, first compound 0.1 µM
[9] = second compound 0.1 µM, first compound 0.0316 µM
[10] = second compound 0.1 µM, first compound 0.1 µM
[11] = second compound 0.316 µM, first compound 0.0316 µM
[12] = second compound 0.316 µM, first compound 0.1 µM
[13] = second compound 1 µM, first compound 0.0316 µM
[14] = second compound 1 µM, first compound 0.1 µM
[15] = second compound 3.16 µM, first compound 0.0316 µM
[16] = second compound 3.16 µM, first compound 0.1 µM
[17] = second compound 10 µM, first compound 0.0316 µM
[18] = second compound 10 µM, first compound 0.1 µM
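Also: spheroids exposed to the drugs for 7 days before readout.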
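For viability, T/C in this document: 100% = DMSO vehicle control wells.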

Structure (SMILES): C#Cc1c(F)ccc2cc(O)cc(-c3ncc4c(N5CC6CCC(C5)N6)nc(OCC56CCCN5CC(F)C6)nc4c3F)c12 (stereo not given) + CN1CCN(c2cc(C(=O)Nc3cc4cc(-c5cnn(C)c5)ccc4cn3)ccn2)CC1
IC50 [1]: 49.4 nM | IC50 [2]: < 31.6 nM | IC50 [3]: < 31.6 nM | IC50 [4]: < 31.6 nM | IC50 [5]: < 31.6 nM | IC50 [6]: < 31.6 nM | viability, T/C [7]: 54.9% | viability, T/C [8]: 41.2% | viability, T/C (second compound 0.0316 µM, first compound 0.316 µM): 39.9% | viability, T/C (second compound 0.0316 µM, first compound 1 µM): 37.2% | viability, T/C (second compound 0.0316 µM, first compound 3.16 µM): 33.5% | viability, T/C (second compound 0.0316 µM, first compound 10 µM): 35.1% | viability, T/C [9]: 37.7% | viability, T/C [10]: 34.7% | viability, T/C (second compound 0.1 µM, first compound 0.316 µM): 30.2% | viability, T/C (second compound 0.1 µM, first compound 1 µM): 25.8% | viability, T/C (second compound 0.1 µM, first compound 3.16 µM): 25.2% | viability, T/C (second compound 0.1 µM, first compound 10 µM): 22.8% | viability, T/C [11]: 6.34% | viability, T/C [12]: 7.18% | viability, T/C (second compound 0.316 µM, first compound 0.316 µM): 5.55% | viability, T/C (second compound 0.316 µM, first compound 1 µM): 5.05% | viability, T/C (second compound 0.316 µM, first compound 3.16 µM): 4.85% | viability, T/C (second compound 0.316 µM, first compound 10 µM): 4.28% | viability, T/C [13]: 0.24% | viability, T/C [14]: 1.36% | viability, T/C (second compound 1 µM, first compound 0.316 µM): 0.31% | viability, T/C (second compound 1 µM, first compound 1 µM): 0.34% | viability, T/C (second compound 1 µM, first compound 3.16 µM): 0.22% | viability, T/C (second compound 1 µM, first compound 10 µM): 0.33% | viability, T/C [15]: 0.26% | viability, T/C [16]: 1.39% | viability, T/C (second compound 3.16 µM, first compound 0.316 µM): 0.4% | viability, T/C (second compound 3.16 µM, first compound 1 µM): 0.27% | viability, T/C (second compound 3.16 µM, first compound 3.16 µM): 0.23% | viability, T/C (second compound 3.16 µM, first compound 10 µM): 1.06% | viability, T/C [17]: 0.28% | viability, T/C [18]: 0.2% | viability, T/C (second compound 10 µM, first compound 0.316 µM): 0.22% | viability, T/C (second compound 10 µM, first compound 1 µM): 0.2% | viability, T/C (second compound 10 µM, first compound 3.16 µM): 0.21% | viability, T/C (second compound 10 µM, first compound 10 µM): 1.87%

Structure (SMILES): Cn1ncnc1[C@H]1c2n[nH]c(=O)c3cc(F)cc(c23)N[C@@H]1c1ccc(F)cc1 + CN1CCN(c2cc(C(=O)Nc3cc4cc(-c5cnn(C)c5)ccc4cn3)ccn2)CC1
IC50 [1]: > 100 nM | IC50 [2]: > 100 nM | IC50 [3]: < 0.316 nM | IC50 [4]: < 0.316 nM | IC50 [5]: < 0.316 nM | IC50 [6]: < 0.316 nM | viability, T/C (second compound 0.0316 µM, first compound 0.000316 µM): 112% | viability, T/C (second compound 0.0316 µM, first compound 0.001 µM): 106% | viability, T/C (second compound 0.0316 µM, first compound 0.00316 µM): 99.2% | viability, T/C (second compound 0.0316 µM, first compound 0.01 µM): 94.9% | viability, T/C [7]: 107% | viability, T/C [8]: 96.5% | viability, T/C (second compound 0.1 µM, first compound 0.000316 µM): 84.8% | viability, T/C (second compound 0.1 µM, first compound 0.001 µM): 88.5% | viability, T/C (second compound 0.1 µM, first compound 0.00316 µM): 85.1% | viability, T/C (second compound 0.1 µM, first compound 0.01 µM): 79.6% | viability, T/C [9]: 84.1% | viability, T/C [10]: 63.7% | viability, T/C (second compound 0.316 µM, first compound 0.000316 µM): 5.57% | viability, T/C (second compound 0.316 µM, first compound 0.001 µM): 7.18% | viability, T/C (second compound 0.316 µM, first compound 0.00316 µM): 5.28% | viability, T/C (second compound 0.316 µM, first compound 0.01 µM): 6.84% | viability, T/C [11]: 6.51% | viability, T/C [12]: 9.2% | viability, T/C (second compound 1 µM, first compound 0.000316 µM): 0.52% | viability, T/C (second compound 1 µM, first compound 0.001 µM): 0.5% | viability, T/C (second compound 1 µM, first compound 0.00316 µM): 0.55% | viability, T/C (second compound 1 µM, first compound 0.01 µM): 0.33% | viability, T/C [13]: 0.32% | viability, T/C [14]: 2.32% | viability, T/C (second compound 3.16 µM, first compound 0.000316 µM): 0.36% | viability, T/C (second compound 3.16 µM, first compound 0.001 µM): 0.46% | viability, T/C (second compound 3.16 µM, first compound 0.00316 µM): 1.75% | viability, T/C (second compound 3.16 µM, first compound 0.01 µM): 0.59% | viability, T/C [15]: 0.66% | viability, T/C [16]: 0.41% | viability, T/C (second compound 10 µM, first compound 0.000316 µM): 0.27% | viability, T/C (second compound 10 µM, first compound 0.001 µM): 1.75% | viability, T/C (second compound 10 µM, first compound 0.00316 µM): 0.83% | viability, T/C (second compound 10 µM, first compound 0.01 µM): 0.22% | viability, T/C [17]: 2.44% | viability, T/C [18]: 2.04%

Structure (SMILES): C=CC(=O)Nc1cc(Nc2nccc(-c3cn(C)c4ccccc34)n2)c(OC)cc1N(C)CCN(C)C + CN1CCN(c2cc(C(=O)Nc3cc4cc(-c5cnn(C)c5)ccc4cn3)ccn2)CC1
IC50 [1]: > 300 nM | IC50 [2]: > 300 nM | IC50 [3]: < 0.949 nM | IC50 [4]: < 0.949 nM | IC50 [5]: < 0.949 nM | IC50 [6]: < 0.949 nM | viability, T/C (second compound 0.0316 µM, first compound 0.000949 µM): 104% | viability, T/C (second compound 0.0316 µM, first compound 0.003 µM): 100% | viability, T/C (second compound 0.0316 µM, first compound 0.00949 µM): 94.9% | viability, T/C (second compound 0.0316 µM, first compound 0.03 µM): 86.5% | viability, T/C (second compound 0.0316 µM, first compound 0.0949 µM): 85.7% | viability, T/C (second compound 0.0316 µM, first compound 0.3 µM): 60.6% | viability, T/C (second compound 0.1 µM, first compound 0.000949 µM): 77.1% | viability, T/C (second compound 0.1 µM, first compound 0.003 µM): 86.2% | viability, T/C (second compound 0.1 µM, first compound 0.00949 µM): 80.8% | viability, T/C (second compound 0.1 µM, first compound 0.03 µM): 74.3% | viability, T/C (second compound 0.1 µM, first compound 0.0949 µM): 70.8% | viability, T/C (second compound 0.1 µM, first compound 0.3 µM): 50% | viability, T/C (second compound 0.316 µM, first compound 0.000949 µM): 6.91% | viability, T/C (second compound 0.316 µM, first compound 0.003 µM): 7.98% | viability, T/C (second compound 0.316 µM, first compound 0.00949 µM): 5.85% | viability, T/C (second compound 0.316 µM, first compound 0.03 µM): 4.61% | viability, T/C (second compound 0.316 µM, first compound 0.0949 µM): 6.12% | viability, T/C (second compound 0.316 µM, first compound 0.3 µM): 4.42% | viability, T/C (second compound 1 µM, first compound 0.000949 µM): 0.32% | viability, T/C (second compound 1 µM, first compound 0.003 µM): 0.55% | viability, T/C (second compound 1 µM, first compound 0.00949 µM): 1.29% | viability, T/C (second compound 1 µM, first compound 0.03 µM): 0.51% | viability, T/C (second compound 1 µM, first compound 0.0949 µM): 2.8% | viability, T/C (second compound 1 µM, first compound 0.3 µM): 0.65% | viability, T/C (second compound 3.16 µM, first compound 0.000949 µM): 0.42% | viability, T/C (second compound 3.16 µM, first compound 0.003 µM): 1.96% | viability, T/C (second compound 3.16 µM, first compound 0.00949 µM): 1.14% | viability, T/C (second compound 3.16 µM, first compound 0.03 µM): 0.42% | viability, T/C (second compound 3.16 µM, first compound 0.0949 µM): 2.24% | viability, T/C (second compound 3.16 µM, first compound 0.3 µM): 1.33% | viability, T/C (second compound 10 µM, first compound 0.000949 µM): 0.31% | viability, T/C (second compound 10 µM, first compound 0.003 µM): 0.31% | viability, T/C (second compound 10 µM, first compound 0.00949 µM): 0.31% | viability, T/C (second compound 10 µM, first compound 0.03 µM): 0.85% | viability, T/C (second compound 10 µM, first compound 0.0949 µM): 2.25% | viability, T/C (second compound 10 µM, first compound 0.3 µM): 2.99%

IC50 (compound alone, run of 09/19/2023): > 10000 nM
Structure (SMILES): CNC(=O)c1ccc(Nc2nc(OC3CCCC3)c3c(-c4ccc5nc(C)oc5c4)c[nH]c3n2)c(OC)c1
viability, T/C (compound 0.0316 µM): 97.8% [middle of 7 runs] | viability, T/C (compound 0.1 µM): 85.7% [middle of 10 runs] | viability, T/C (compound 0.316 µM): 78.1% [middle of 10 runs] | viability, T/C (compound 1 µM): 70.6% [middle of 10 runs] | viability, T/C (compound 3.16 µM): 62.4% [middle of 10 runs] | viability, T/C (compound 10 µM): 57.3% [middle of 10 runs]

IC50 (curve of compound): 3.85 nM
Structure (SMILES): CC(C)CC(NC(=O)C(Cc1ccccc1)NC(=O)c1cnccn1)B(O)O (stereo not given)
viability, T/C (compound 0.000949 µM): 99.9% | viability, T/C (compound 0.003 µM): 63.8% | viability, T/C (compound 0.00949 µM): 0.44% | viability, T/C (compound 0.03 µM): 0.67% | viability, T/C (compound 0.0949 µM): 0.24% | viability, T/C (compound 0.3 µM): 0.27%
